Results on one molecule are retold here after PMC9813109, “Phase I dose-escalation study of milademetan in patients with relapsed or refractory acute myeloid leukemia” (International Journal of Hematology, 2022).

Structures are written as SMILES.

Series [1] relates to macrophage inhibitory cytokine-1 (MIC-1) serum levels. Description: Serum MIC-1 (GDF-15) ELISA, pharmacodynamic biomarker. Type of series: in vivo, human. On the procedure: To investigate biomarkers that could be potentially linked to the milademetan mechanism of action, blood, bone marrow, and serum were collected. TP53 tumor genotyping was done using bone marrow and blood samples collected before milademetan administration and at the end of treatment. TP53 genomic status was determined using a targeted next-generation sequencing following the reference human genome sequence (hg19). QIAamp® DSP FFPE Kit (Qiagen, Hilden, Germany) was used to extract DNA. Quantified DNA samples were processed by polymerase chain reaction (PCR) amplification using custom primer sets of all 11 TP53 exons. Libraries were prepared from purified PCR pools using Illumina TruSeq kits™ (Illumina, San Diego, CA, USA) and analyzed using the MiSeq platform™ (Illumina). Raw reads were aligned against hg19, and data sets were analyzed using a program developed in-house for genomic aberrations (i.e., mutations, deletions, and insertions) detection. Quantikine® ELISA Human GDF-15 immunoassay (R&D Systems, Inc., Minneapolis, MN, USA), employing the quantitative sandwich enzyme immunoassay technique, was used to determine serum MIC-1, also known as growth and differentiation factor-15 (GDF-15). […] In addition to descriptive statistics, the geometric mean and geometric coefficient of variation were used to describe the PK parameters. All analyses were conducted using SAS® software (version 9.4; SAS Institute Inc., Cary, NC, USA). The time courses of mean plasma milademetan concentrations on days 1 and 14 of cycle 1 (linear scale) in the QD 14/28-day schedule were used for pharmacokinetic analysis. The best response was measured as CR, CRh, CRi, or PR. For efficacy analysis, a waterfall plot of the best percent change from baseline blast count in bone marrow aspirate on the QD 14/28-day schedule was drawn to assess the blast count reduction. In addition, line plots of individual serum MIC-1 levels were drawn in the QD 14/28-day schedule for the pharmacodynamics analysis set.
On the technique in general: In an ELISA, binding on a coated surface is turned into a signal by an enzyme label.

A further series has as its system tumor cells. On the set-up: method as in PMID 31310659, PMID 30724592. The following applies: in vitro studies; cited from earlier work.
In series [2] the test system is hematologic malignancies like R/R AML and high-risk myelodysplastic syndrome. The following applies: QD 14/28-day schedule, USA phase I, ref NCT02319369, data not published; cited from earlier work.

Take `CC1(C)CCC2(CC1)N[C@@H](C(=O)N[C@@H]1CC[C@@H](C(N)=O)OC1)[C@H](c1ccnc(Cl)c1F)[C@]21C(=O)Nc2cc(Cl)ccc21` [milademetan]: in series [1] (all cohorts, after administration), the “Mean serum MIC-1 levels vs baseline” value is reported as “increased from baseline in all cohorts”. The “Peak MIC-1 levels, 120- and 160-mg cohorts vs 90-mg cohort” value in series [1] (in vivo) was “tended to be higher”. For the same molecule, in series [1] (most patients), the “Time of peak serum MIC-1 level” value is “day 8 or 14 of cycle 1”. Moreover, the “Antitumor effect in vitro” value in the series on tumor cells is recorded as “p53 status-dependent antitumor effect”. Moreover, the “Maximum tolerated dose (MTD)” value in series [2] is 160 mg.
